# Tested on: subcutaneous human pancreatic adenocarcinoma BxPC3 tumors
# Assay: PpIX delayed/immediate fluorescence imaging of subcutaneous tumors after ALA injection, with palpation
# Type: in vivo
# Details: nude mice with BxPC3 tumors, ALA 250 mg/kg intraperitoneal, imaged 6 hours later
# Experimental: Nude female mice were inoculated with a single subcutaneous injection of 10^6 human pancreatic adenocarcinoma BxPC3 cells, under the skin on the flank. After approximately 3 weeks of growth, animals were chosen for imaging when their tumor diameter reached approximately 8 mm in size. These nude mice were used in the imaging experiments described below.
# ALA was either intraperitoneally injected (250 mg/kg) 6 hours prior to imaging, or topically applied onto a region of interest 3 hours before imaging as Ameluz (Trademark of Biofrontera AG, Leverkusen, Germany), ointment containing 10% ALA, as further described below
# Images of tumor in the live mice were acquired using a highly sensitive intensified CMOS camera synchronized with a 50-mW average output power, 635 nm, modulated diode laser using 20 microsecond (μs) pulses at repetition rate of 500 hertz (Hz) providing pulsed fluorescence excitation light. […] Irradiance were measured using a power meter with a photodiode power sensor.
# The intensifier of the intensified CMOS camera was directly controlled by circuitry synchronized to the laser pulses. […] Fifty laser pulse gate periods were integrated in each image frame, alternating between immediate fluorescence and delayed fluorescence for even and odd frames, respectively. […]
smiles,measurement,setting,value
"NCC(=O)CCC(=O)O [ALA, aminolevulinic acid]",duration of excellent tumor contrast from palpation-induced deoxygenation,after palpation,up to 5 min
same,contrast in a pancreatic cancer model relative to surrounding normal oxygenated tissues (delayed fluorescence and DF/IF ratio),in some examples,5 factor

# Source: patent US20250194968A1, “ADMINISTRATION OF AMINOLEVULINIC ACID WITH DELAYED FLUORESCENT IMAGING TO MAP AND QUANTIFY TISSUE OXYGENATION LEVELS” (THE TRUSTEES OF DARTMOUTH COLLEGE, priority 2022, published 2025)
